Measurements from patent publication US20220211684A1, “ANTIFUNGAL AGENTS FOR CANDIDA AURIS DECOLONIZATION” (Scynexis, Inc., priority 2019, published 2022).
Values after ≈ are worked out from the molar mass of the structure shown. Like-named read-outs stand apart in the source and are kept apart here.

What was measured:
Candida auris [1] = conditions: 100 isolates of Candida auris; cited from earlier work
clinical = experiment: clinical; parameters: species or system humans; conditions: human, in vivo, po
Excerpt: Print 2019 February PMID: 30478166). Such features are important for the treatment and prevention of fungal infections, as well as for achieving decolonization of susceptible fungal pathogens such as Candida auris.

in vivo = experiment: in vivo; parameters: species or system Guinea pigs; conditions: guinea pig, po, 10 mg/kg
Description: (§1) Guinea pigs (n=5 per group) were randomized to receive 10 or 20 or 30 mg/kg of ibrexafungerp twice daily (BID) by gavage, or vehicle control. Animals received a single dose of prednisolone at 30 mg/kg, subcutaneously, one day prior and one and three days post infection to favor immuno-compromise of the animals and facilitate the development of Candida auris skin infection. A 100 μl cell suspension containing 10^8 blastospores of Candida auris was applied to an abraded area on the back of the animals. At Day 7, tissue biopsies were examined histologically, and tissue fungal burden was analyzed by colony counts from skin samples. PK bioanalysis of ibrexafungerp plasma concentrations was conducted following the final dose (Day 7).

Candida auris [2] = experiment: Guinea pig model of Candida auris skin infection, skin burden; format: in vivo, Guinea pigs
Description: as §1

Candida spp. = conditions: previous animal models of systemic Candida spp. infection; cited from earlier work
Candida auris [3] = experiment: MIC50 against 102 Candida auris clinical and surveillance isolates from an outbreak in New York; format: cell-based; conditions: 97 isolates with variable or multidrug resistance; for MIC50: Candidozyma auris
Excerpt: Low MIC50 values for ibrexafungerp were found for 102 Candida auris clinical and surveillance isolates from an outbreak in New York. The isolates included C. auris with a variable resistance to antifungal drugs (resistance to one drug in one or two classes of antifungal drugs), multidrug-resistant isolates (resistance to two or more drugs between two classes of antifungal drugs), and pan-resistant isolates (resistance to two or more azoles, all tested echinocandins, and amphotericin B). For the 97 isolates that had variable or multidrug resistance to the other tested antifungal drugs (including fluconazole, voriconazole, itraconazole, isavuconazole, posaconazole, anidulafungin, caspofungin, micafungin, amphotericin B, and flucytosine), the ibrexafungerp MIC50 range was 0.06-0.5 μg/ml; the median and mode for ibrexafungerp MIC50 were each 0.5 μg/ml.

CC(C)[C@@H](C)[C@@]1(C)CC[C@]2(C)[C@H]3CC[C@@H]4[C@@]5(COC[C@@]4(C)[C@@H](OC[C@](C)(N)C(C)(C)C)[C@H](n4ncnc4-c4ccncc4)C5)C3=CC[C@@]2(C)[C@@H]1C(=O)O [ibrexafungerp, (1S,4aR,6aS,7R,8R,10aR,10bR,12aR,14R,15R)-15-[[(2R)-2-amino-2,3,3-trimethylbutyl]oxy]-8-[(1R)-1,2-dimethylpropyl]-14[5-(4-pyridinyl)-1H-1,2,4-triazol-1-yl]-1,6,6a,7,8,9,10,10a,10b,11,12,12a-dodecahydro-1,6a,8,10a-tetramethyl-4H-1,4a-propano-2H-phenanthro[1,2-c]pyran-7-carboxylic acid]
MIC50 (Candida auris [1]): 0.5 micrograms/ml | MIC90 (Candida auris [1]): 1 micrograms/ml | MIC overall mode (Candida auris [1]): 1 micrograms/ml | bioavailability (clinical): > 20% | AUC(0-t) (in vivo): 2.8 µg·h/mL | Tissue burdens of Candida auris (skin, colony counts) (Candida auris [2]; 10, 20 or 30 mg/kg BID by gavage, Day 7, versus vehicle control): lower in all treatment groups versus in the vehicle control group | fungal elements in biopsy samples (histology) (Candida auris [2]; Day 7 tissue biopsies, versus untreated control): No fungal elements were observed | clinical scores (crusting, inflammation) (Candida auris [2]; among the active treatment groups): no significant differences | exposures needed to achieve efficacy (Candida spp.): ~11.2 µg·h/mL | MIC50 range (Candida auris [3]): 0.06 to 0.5 mg/L | MIC50 (Candida auris [3]; read-out: MIC50 median): 0.5 mg/L (≈ 0.685 µM) | MIC50 (Candida auris [3]; read-out: MIC50 mode): 0.5 mg/L (≈ 0.685 µM)
